MIC data for four compounds are collected here from patent EP0008888A1, “Beta-lactam antibacterial compounds, their preparation and pharmaceutical compositions containing them” (BEECHAM GROUP PLC, priority 1978, dated 1980).

Converted amounts (≈) assume the structure as drawn.

Test systems include Citrobacter freundii E8; Enterobacter cloacoae N1; Escherichia coli 0111; Klebsiella aerogenes A; Proteus mirabilis C977; Proteus vulgaris WO91; Pseudomonas aeruginosa A; Serratia marcescens US20; Bacillus subtilis A.
Holding throughout (experiment): MIC in a standard test
Assay type in all cases: cell-based

Another assay deals with Escherichia coli JT39. Conditions: standard test; Escherichia coli JT39; read-out: MIC.
The test system of a further assay is Proteus morganii I580. Conditions: Morganella morganii.
A further assay concerns Proteus rettgeri WM16. Conditions: Providencia rettgeri.
In assay [1] the test system is Salmonella typhimurium CT10. Particulars: Salmonella enterica.
The subject of a further assay is Shigella sonnei MB 11967. Conditions: MB11967.
For assay [2], the system named is Staphylococcus aureus Oxford.
The test system of assay [3] is Staphylococcus aureus Russell.
The subject of assay [4] is Staphylococcus aureus 1517.
The next assay deals with Streptococcus faecalis I. Conditions: Enterococcus faecalis.
Assay [5] relates to Streptococcus pyogenes CN10.
Assay [6] deals with Streptococcus pneumoniae CN33.

In the case of `CCSC1=C(C(=O)OCc2ccc([N+](=O)[O-])cc2)N2C(=O)[C@@H](CCN=[N+]=[N-])[C@H]2C1` (relative stereo) [Example 82, p - Nitrobenzyl - 6β-(2 - azidoethyl) - 3 - ethylthio - 7 - oxo - 1 - azabicyclo [3.2.O] hept-2 - ene - 2 - carboxylate], the MIC in the assay on Citrobacter freundii E8 worked out at 3.1 µg/mL (≈ 7.43 µM); with Enterobacter cloacoae N1, 12.5 µg/mL (≈ 29.9 µM); against Escherichia coli 0111, 1.6 µg/mL (≈ 3.83 µM); in the assay on Escherichia coli JT39, 12.5 µg/mL (≈ 29.9 µM); with Klebsiella aerogenes A, 1.6 µg/mL (≈ 3.83 µM); with Proteus mirabilis C977 it was 12.5 µg/mL (≈ 29.9 µM). Also, the MIC is 12.5 µg/mL (≈ 29.9 µM) with Proteus morganii I580; 6.2 µg/mL (≈ 14.9 µM) in the assay on Proteus rettgeri WM16; 12.5 µg/mL (≈ 29.9 µM) in the assay with Proteus vulgaris WO91; more than 50 µg/mL with Pseudomonas aeruginosa A; 3.1 µg/mL (≈ 7.43 µM) in [1]; 12.5 µg/mL (≈ 29.9 µM) with Serratia marcescens US20. Also, the minimal inhibitory concentration (MIC) in the assay on Shigella sonnei MB 11967 was 3.1 µg/mL (≈ 7.43 µM); in the assay on Bacillus subtilis A it was 1.6 µg/mL (≈ 3.83 µM); in [2], 0.8 µg/mL (≈ 1.92 µM); in [3], 1.6 µg/mL (≈ 3.83 µM); in [4] it was 50 µg/mL (≈ 120 µM); against Streptococcus faecalis I, 50 µg/mL (≈ 120 µM).
On to `CCSC1=C(C(=O)OC2OC(=O)c3ccccc32)N2C(=O)C[C@H]2C1` (stereo partly shown) [Example 9, Phthalidyl 3-ethylthio-7-oxo-1-azabicyclo[3.2.0]hept-2-ene-2-carboxylate], for which the MIC against Citrobacter freundii E8 was 12.5 µg/mL (≈ 36.2 µM); with Escherichia coli 0111, 12.5 µg/mL (≈ 36.2 µM); in the assay on Escherichia coli JT39, more than 50 µg/mL; against Klebsiella aerogenes A it was 12.5 µg/mL (≈ 36.2 µM); against Proteus mirabilis C977 it was 25 µg/mL (≈ 72.4 µM); in the assay on Proteus morganii I580, 25 µg/mL (≈ 72.4 µM). Moreover, the MIC against Proteus rettgeri WM16 is more than 50 µg/mL; against Proteus vulgaris WO91 it was more than 50 µg/mL; in the assay with Pseudomonas aeruginosa A, more than 50 µg/mL; in assay [1], 12.5 µg/mL (≈ 36.2 µM); in the assay with Serratia marcescens US20 it was 50 µg/mL (≈ 145 µM); in the assay on Shigella sonnei MB 11967, 12.5 µg/mL (≈ 36.2 µM). Moreover, the MIC against Bacillus subtilis A is 25 µg/mL (≈ 72.4 µM); in [2] it was more than 50 µg/mL; in assay [3] it was more than 50 µg/mL; in [4], more than 50 µg/mL; with Streptococcus faecalis I, more than 50 µg/mL; in assay [5], 12.5 µg/mL (≈ 36.2 µM).
`NCCSC1=C(C(=O)O)N2C(=O)CC2C1` (stereo not shown) [Example 15, 3-Aminoethylthio-7-oxo-1-azabicyclo[3.2.0]hept-2-ene-2-carboxylic acid]: the MIC in the assay with Citrobacter freundii E8 was 3.1 µg/mL (≈ 13.6 µM); against Enterobacter cloacoae N1, 3.1 µg/mL (≈ 13.6 µM); with Escherichia coli 0111 it was 3.1 µg/mL (≈ 13.6 µM); with Escherichia coli JT39, 1.6 µg/mL (≈ 7.01 µM); with Klebsiella aerogenes A, 1.6 µg/mL (≈ 7.01 µM); in the assay with Proteus mirabilis C977, 25 µg/mL (≈ 110 µM). Besides, the MIC against Proteus morganii I580 came out at 25 µg/mL (≈ 110 µM); in the assay with Proteus rettgeri WM16, 25 µg/mL (≈ 110 µM); in the assay with Proteus vulgaris WO91, 25 µg/mL (≈ 110 µM); with Pseudomonas aeruginosa A, 6.2 µg/mL (≈ 27.2 µM); in assay [1], 3.1 µg/mL (≈ 13.6 µM); with Serratia marcescens US20, 6.2 µg/mL (≈ 27.2 µM). Moreover, the MIC against Shigella sonnei MB 11967 was 3.1 µg/mL (≈ 13.6 µM); against Bacillus subtilis A, 0.8 µg/mL (≈ 3.5 µM); in [2], 0.8 µg/mL (≈ 3.5 µM); in assay [3], more than 3.1 µg/mL; with Streptococcus faecalis I, 25 µg/mL (≈ 110 µM); in assay [6] it was 0.2 µg/mL (≈ 0.876 µM). In addition, in assay [5], the MIC came to 0.4 µg/mL (≈ 1.75 µM).
In the case of `COC(=O)CCSC1=C(C(=O)O)N2C(=O)C[C@H]2C1` [Example 23, Potassium 3-(2-methoxycarbonylethvlthio)-7-oxo-l-azabicyclo[3.2.0]hept-2-ene-2-carboxylate], the minimum inhibitory concentration (MIC) against Citrobacter freundii E8 was 1.6 µg/mL; against Escherichia coli 0111, 1.6 µg/mL; with Escherichia coli JT39, 6.2 µg/mL; against Klebsiella aerogenes A, 1.6 µg/mL; against Proteus mirabilis C977, 12.5 µg/mL; against Proteus morganii I580 it was 25 µg/mL. Moreover, the MIC in the assay on Proteus rettgeri WM16 was 25 µg/mL; with Proteus vulgaris WO91 it was 25 µg/mL; against Pseudomonas aeruginosa A it was more than 50 µg/mL; in assay [1], 3.1 µg/mL; against Serratia marcescens US20 it was 25 µg/mL; in the assay with Bacillus subtilis A, 3.1 µg/mL. In addition, the MIC in assay [2] is 12.5 µg/mL; in assay [3], 50 µg/mL; in assay [4], more than 50 µg/mL; against Streptococcus faecalis I it was more than 50 µg/mL; in [6], not above 0.2 µg/mL; in assay [5], 0.8 µg/mL.
